Patent publication US7378387B2, “Method of suppressing immune response by reducing intracellular content of glutathione in macrophages and monocytes” (Ajinomoto Co., Inc., priority 1997, dated 2008)

What was measured:
PGE2 = PGE2 in macrophage culture supernatant, advanced tumor-bearing mice (Example 4); format: in vivo, CDF1 mice; conditions: oral 1 mg/0.5 ml/h for 10 days, COLON 26 mice; control mice 32 ng/ml
Experimental: After the completion of the above-mentioned incubation, the culture supernatant was recovered. The amount of IL-6 was measured by the proliferation assay using an IL-6-dependent cell strain, MH60, the amount of PGE2 was measured using an ELISA-kit, and the amount of NO was measured using a Griess-Romijn reagent. These measurements were conducted by a method which those skilled in the art usually employ.
The COLON 26 transplantable tumor was implanted subcutaneously in the back portion of CDF1 mice at a density of 5×10^5 cells/mouse. […] Glutathione ethyl ester was orally administered to the mice every day in a dosage of 1 mg/0.5 ml/h. This oral administration was continued for 10 days. The peritoneal cells were collected from the mice in the same manner as in Example 3. Peritoneal macrophages were collected, and suspended in a phenol red-free RPMI 1640 medium containing 10% fetal calf serum to a density 3×10^5 cells/ml. The suspension was charged into a Lab-Tek Chamber Slide (#136439, supplied by Nunc) in an amount of 100 μl, and the incubation was conducted in 5% CO2 at 37° C. for 3 hours. After the nonadherent cells were removed, 200 μl of above-mentioned medium free from serum were added thereto, and 10 μM of monochlorobimane were then added thereto. […]

[1] = test system: COLON 26 transplantable tumor; assay: Survival of COLON 26 advanced tumor-bearing cachectic mice (Example 4); format: in vivo, CDF1 mice; conditions: oral 1 mg/0.5 ml/h for 10 days, COLON 26 mice; control mice 42
IL-12 [2] = assay: IL-12 production by MΦ induced by intraperitoneal injection of substances (Example 7); format: in vivo, mouse
Experimental: (§1) The amount of IL-12 was determined through bioassay using cells of human T cell strain 2D6 (J. Leukocyte Biology, vol. 61, p. 346, 1997).
(§2) 2D6 cells which had been incubated in an RPMI 1640 medium containing 500 pg/ml of recombinant human IL-12, 50 μM of 2-mercaptoethanol and 10% FCS (fetal calf serum) were moved to a tube, and centrifugally washed three times with the above-mentioned medium without IL-12 and cell density was adjusted to 1×10^5/ml. The cell suspension was added in an amount of 100 μl each to a 96-well flat bottom plate containing a sample serially diluted in advance with an RPMI 1640 medium containing 50 μM of 2-mercaptoethanol and 10% FCS in an amount of 100 μl each. Subsequently, the mixture was charged into a 5% […] incubator of 37° C., and incubated for 48 hours. For final 6 hours, ^3H-TdR was pulsed (a substance adjusted to 370 kBq/ml in an RPMI 1640 medium containing 50 μM of 2-mercaptoethanol and 10% FCS was added in an amount of 50 μl each). The cells a harvested, and the radioactivity was measured using a β counter (Matrix 96, supplied by Packard).
It was examined whether there is a difference in the IL-12 production between LNT-induced MΦ and LPS-induced MΦ. […] Next, the same analysis was conducted using MΦ induced by intraperitoneally injecting substances for changing the GSH content in cells.

IL-12 [3] = assay: IL-12 production of MΦ after NAC drinking and/or IL-2 administration (Example 8); format: in vivo, DBA/2 female mice; conditions: stimulated with LPS and IFNγ; control mice 0 pg/ml
Experimental: as §1, §2

[4] = test system: macrophages within the thoracic cavity of the patient suffering from sarcoidosis; assay: GSH and GSSG content by enzyme recycling method in macrophages of a sarcoidosis patient incubated with NAC (Example 5); format: cell-based, human; conditions: 5 mM NAC, 3 hours
Description: The amounts of oxidative and reductive monocytes macrophages contained in monocytes preparation separated and collected in a usual manner from the peripheral blood and the thoracic cavity of the patient suffering from sarcoidosis were examined by biochemically measuring the contents of reductive glutathione (GSH) end oxidative glutathione (GSSG) by the enzyme recycling method. The peripheral blood of the healthy person was used as a control.
The peripheral blood of the healthy person and the peripheral blood of the patient suffering from sarcoidosis were collected with heparin. Or 150 ml of a physiological saline solution was injected into the bronchia of the patient using a bronchofiber, and 75 ml of bronchoalveolar lavaged fluid were recovered. Monocytes obtained by separating and purifying both of them using Ficoll-Hypaque (LYMPHOPREP) were suspended in an RPMI 1640 medium containing 10% fetal calf serum, and washed three times to obtain macrophage/monocyte preparation adherent to a glass petri dish for 30 minutes. Subsequently, a group incubated for 3 hours with the addition of 5 mM N-acetylcysteine (NAC) and a group of a medium component alone were prepared. A rubber policeman was used to recover adherent cells from the petri dish. With respect to 5×10^5 macrophages, the following examination was conducted.
The contents of reductive glutathione and oxidative glutathione were measured by the above-mentioned enzyme recycling method. […]
A 10 mM phosphate buffer (590 μl, pH 7.5) containing 0.5 mM EDTA, 100 μl of glutathione reductase (supplied by Boehlinger Mannhein) adjusted to a concentration of 6 u/ml in the same buffer, 50 μl of 4 mM NADPH (supplied by Sigma Co.) prepared with 5% NaHCO3 and 10 μl of the sample were mixed. […] The change in the absorbance of 412 nm at 37° C. over the course of time was measured using a spectrophotometer. […]

| Structure (SMILES) | amount of PGE2 (PGE2) [ng/mL] | average number of survival days [1] [days] | IL-12 production (IL-12 [2]; MΦ induced by intraperitoneal injection of the substance, stimulation with LPS and IFNγ) | IL-12 production of substance-induced MΦ, without DEM or IL-4 (IL-12 [2]; baseline values of the DEM and IL-4 experiments) [pg/mL] | amount of IL-12 (IL-12 [3]) [pg/mL] | ratio of reductive GSH [4] | content of reductive GSH ([4]; without NAC 1.45 μM) [µM] | content of oxidative GSSG ([4]; without NAC 15.85 μM) [µM] |
| --- | --- | --- | --- | --- | --- | --- | --- | --- |
| CCOC(=O)CNC(=O)[C@H](CS)NC(=O)CC[C@H](N)C(=O)O [GSH-OEt, glutathione monoethyl ester] | 6.5 | 148 | 3,570 pg/ml | 490 | – | – | – | – |
| CC(=O)N[C@@H](CS)C(=O)O [NAC, N-acetylcysteine, reference compound] | – | – | – | – | 620 | exceeded 80% | 20.45 | 4.32 |
